Test results as given in patent US8475850B2, “Methods and compositions for heavy metal detoxification” (priority 2007, dated 2013).
Read-outs that look alike come from different tables or passages of the source.

Experiments:
NQO1 = experiment: NADPH quinone oxido reductase (NQO1) activity assay in RL-34 cell lysate after treatment; type: cell-based, rat; conditions: RL-34 cell line
GSTA1 and NQO1 = conditions: for phase II gene expression increased over DMSO control: text summary of Table 7
[1] = tested on: heme oxygenase (HO-1) promoter; experiment: heme oxygenase (HO-1) luciferase reporter in the HepG2 cell line; conditions: thirty percent induction over DMSO control is considered as active
HMOX1 = conditions: for HMOX1 gene expression increased over DMSO control: text summary of Table 7
[2] = tested on: metallothionein (hMT1&2 and hMT1&2alt); conditions: for MT gene expression increased over DMSO control: text summary of Table 7
GST = GST activity assay in RL-34 cell lysate after treatment; type: cell-based, rat; conditions: RL-34 cell line
Nrf-2 = experiment: Western blot of Nrf-2 in the nuclear fraction of HepG2 cells; type: cell-based, human; conditions: 4 hours, FIGS. 3 and 4
Experimental: The HepG2 cell line was cultured as above and test compounds were added for four hours, after which the cells were lysed and the nuclear fraction was isolated (Dignam, J. D., R. M. Lebovitz, and R. G. Roeder, Nucleic Acids Res, 11(5): 1475-89, 1983). Total protein concentration was determined using the Bicinchoninic Acid Kit (Sigma). […] (60 μg total protein) were electrophoresed and detection of Nrf-2 was performed using primary antibody incubation overnight at 4° C. (Santa Cruz Biotechnology, Inc, Santa Cruz, Calif.). Secondary antibody linked to horseradish peroxidase was incubated for one h (GE Healthcare, Piscataway, N.J.), after which proteins were visualized using the enhanced chemiluminescence (ECL) system. Densitometry was performed using Kodak Molecular Imaging Software v.4.0 (Eastman Kodak Company, Rochester, N.Y.) measuring the net intensity of the band.

Compound: O=c1c(O)c(-c2ccc(O)c(O)c2)oc2cc(O)cc(O)c12 [Quercitin]
- NQO1 enzymatic activity induced over DMSO control (NQO1; 20 μg/ml): ≥ 20%

Compound: C=C1C(=O)O[C@H]2[C@H]1CC/C(C)=C/CC[C@@]1(C)O[C@@H]21 [Parthenolide]
- NQO1 enzymatic activity induced over DMSO control (NQO1; 20 μg/ml): ≥ 20%

Compound: Oc1ccc(C=Cc2cc(O)cc(O)c2)cc1 [Resveratrol]
- NQO1 enzymatic activity induced over DMSO control (NQO1; 20 μg/ml): ≥ 20%

Compound: [Cl-].[Cl-].[Zn+2] [ZnCl2]
- Phase II (ave) Ratio to DMSO (GSTA1 and NQO1; HepG2 cells, 8 hours, 10 μg/ml, average of GSTA1 and NQO1): 0.94
- expression of heme oxygenase promoter activity (in words) [1]: induced

Compound: O=c1c(-c2ccc(O)cc2)coc2cc(O)cc(O)c12 [Bonistein]
- NQO1 enzymatic activity induced over DMSO control (NQO1; 20 μg/ml): ≥ 20%

Compound: COc1cc(C=CC(=O)CC(=O)C=Cc2ccc(O)c(OC)c2)ccc1O [Curcumin, 1,7-Bis(4-hydroxy-3-methoxyphenyl)hepta-1,6-diene-3,5-dione]
- NQO1 enzymatic activity induced over DMSO control (NQO1; 5 μg/ml): ≥ 20%
- HMOX1 gene expression increased over DMSO control (HMOX1; HepG2 cells): ≥ 20%
- phase II gene expression increased over DMSO control (GSTA1 and NQO1; HepG2 cells): ≥ 20%
- expression of heme oxygenase promoter activity (in words) [1]: induced

Compound: O=C(/C=C/c1ccc(O)c(O)c1)O[C@@H]1C[C@](O)(C(=O)O)C[C@@H](O)[C@H]1O [chlorogenic acid]
- NQO1 enzymatic activity induced over DMSO control (NQO1; 25 μg/ml): ≥ 20%

Compound: OCc1c[nH]c2ccccc12 [I3C]
- NQO1 enzymatic activity induced over DMSO control (NQO1; 25 μg/ml): ≥ 20%

Compound: [Cl][Cd][Cl] [CdCl2]
- MT gene induction (in words) ([2]; HepG2 cells, controls): induce
- HMOX1 gene induction (in words) (HMOX1; HepG2 cells, controls): induce
- Phase II (ave) Ratio to DMSO (GSTA1 and NQO1; HepG2 cells, 8 hours, 40 uM, average of GSTA1 and NQO1): 0.94
- phase II gene induction (in words) (GSTA1 and NQO1; HepG2 cells, controls): unable to increase

Compound: c1ccc2c(Cc3c[nH]c4ccccc34)c[nH]c2c1 [DIM]
- NQO1 enzymatic activity induced over DMSO control (NQO1; 25 μg/ml): ≥ 20%

Compound: C=C1CC[C@@H]2[C@](C)(CO)[C@H](O)CC[C@@]2(C)[C@@H]1C/C=C1/C(=O)OC[C@H]1O [Andrographis, 3-(2-(Decahydro-6-hydroxy-5-(hydroxymethyl)-5,8a-dimethyl-2-methylenenaphthyl)ethylidene)dihydro-4-hydroxyfuran-2(3H)-one]
- GST activity induced over DMSO control (GST; 25 μg/ml): ≥ 20%
- NQO1 enzymatic activity induced over DMSO control (NQO1; 25 μg/ml): ≥ 20%
- HMOX1 gene expression increased over DMSO control (HMOX1; HepG2 cells): ≥ 20%
- phase II gene expression increased over DMSO control (GSTA1 and NQO1; HepG2 cells): ≥ 20%

Compound: O=c1oc2c(O)c3oc(=O)c4c5c(oc(=O)c6cc(O)c(O)c(O)c65)c(O)c5oc(=O)c(c2c2c(O)c(O)c(O)cc12)c3c54 [Terminalin]
- expression of heme oxygenase promoter activity (in words) [1]: induced

Compound: COc1cc(O)c(CC=C(C)C)c(O)c1C(=O)/C=C/c1ccc(O)cc1 [Xanthohumol]
- GST activity induced over DMSO control (GST; 1 μg/ml): ≥ 20%
- NQO1 enzymatic activity induced over DMSO control (NQO1; 1 μg/ml): ≥ 20%
- MT gene expression increased over DMSO control ([2]; HepG2 cells): ≥ 20%
- HMOX1 gene expression increased over DMSO control (HMOX1; HepG2 cells): ≥ 20%
- expression of heme oxygenase promoter activity (in words) [1]: induced

Compound: CC1(C)CC[C@]2(C(=O)O)CC[C@]3(C)C(=CC[C@@H]4[C@@]5(C)CC[C@H](O)C(C)(C)[C@@H]5CC[C@]43C)[C@@H]2C1 [Oleanolic acid]
- NQO1 enzymatic activity induced over DMSO control (NQO1; 25 μg/ml): ≥ 20%
- MT gene expression increased over DMSO control ([2]; HepG2 cells): ≥ 20%
- expression of heme oxygenase promoter activity (in words) [1]: induced

Compound: COc1ccc2cc3[n+](cc2c1OC)CCc1cc2c(cc1-3)OCO2 [Berberine]
- NQO1 enzymatic activity induced over DMSO control (NQO1; 20 μg/ml): ≥ 20%

Compound: C[S+]([O-])CCCCN=C=S (stereo not shown) [Sulforaphane]
- GST activity induced over DMSO control (GST; 3 μg/ml): ≥ 20%
- NQO1 enzymatic activity induced over DMSO control (NQO1; 3 μg/ml): ≥ 20%
- Nrf-2 nuclear translocation (in words) (Nrf-2): dramatic increase
- MT 1.2 (ave) Ratio to DMSO [2]: 0.87
- MT gene induction (in words) [2]: but not MT
- HMOX1 gene induction (in words) (HMOX1): increased
- Phase II (ave) Ratio to DMSO (GSTA1 and NQO1): 1.64
- phase II gene induction (in words) (GSTA1 and NQO1): increased
- expression of heme oxygenase promoter activity (in words) [1]: induced
